Laboratory results as given in patent US20240408008A1, “AN IN-SITU GELLING ENEMA OF RIFAMYCIN FOR TREATING POUCHITIS AND DISTAL ULCERATIVE COLITIS” (COSMO TECHNOLOGIES LTD., priority 2021, published 2024).
In brackets after ≈: the same amount, converted by molar mass.

Key:
DSS induced colitis = experiment: Acute colitis induced by Dextran Sulfate Sodium (DSS); assay type: in vivo; conditions: mice, DSS 2%, enema 67 mg/kg
Method: In situ gel enema formulation batch 7663 (same formulation as batch 7639) in vivo efficacy was tested in a murine model of acute colitis induced by Dextran Sulfate Sodium (DSS). This animal model is perhaps the most widely used mouse model of colitis and employs DSS, a chemical colitogen with anticoagulant properties, to induce disease which closely resembles human UC. DSS induced intestinal inflammation results in damage to the epithelial monolayer lining the large intestine allowing the dissemination of proinflammatory intestinal contents (e.g. bacteria and their products) into underlying tissue.
(§1) For this study, a group of mice was treated by enema with Batch 7663 (indicated as CB0125 in the figures) (dose 45 mg/kg), one group was treated by enema with Placebo Batch 7679 as a comparator for 7663; a group was treated by enema with Rifamycin powder dissolved in water (67 mg/kg). One group of mice was treated orally PO with 5-ASA at the dose of 100 mg/Kg; this group was introduced as positive control. 5-ASA is the golden standard therapy for inflammatory bowel diseases, including UC, distal UC and proctitis. One group was treated by enema with the vehicle (H2O) only, as negative control.
Briefly DSS (2%) was dissolved in water (w/v) and given to mice in place of normal drinking water. DSS water was provided ad libitum for 5 days and was changed daily. This period was followed by a washout period of 5 days with water only. Mice were weighed daily and monitored for clinical status including hunching, mobility, soft stool and/or diarrhoea. At end of the study mice were sacrificed by CO2 inhalation. Immediately after euthanasia, the animals were laparatomyzed and intestine was exteriorized. The entire colon was isolated from the caecum to the anus, placed unstretched on a ruler and then measured and weighed after rinsing the lumen with saline. The weight was normalized to the colon length by calculating the ratio.
For histological analysis of colon samples, about 2 cm of the middle portion of isolated colon was fixed in a 10% formalin. Each fixed fragment was embedded in paraffin. The slides were stained with haematoxylin and eosin and assessed according to the histological score.

Veillonella parvula = experiment: MIC, broth dilution; assay type: cell-based; conditions: DSM2007; Veillonella parvula DSM 2007; anaerobic
Rothia dentocariosa = experiment: MIC, broth dilution; assay type: cell-based; conditions: DSM43762; Rothia dentocariosa (DSM 43762); aerobic
[1] = test system: Faecalibacterium prausnitzii; experiment: MIC, broth dilution; assay type: cell-based; conditions: anaerobic
K. pneumoniae = experiment: MIC, broth dilution; assay type: cell-based; conditions: Klebsiella pneumoniae, aerobic
E. faecalis = experiment: MIC, broth dilution; assay type: cell-based; conditions: Enterococcus faecalis, aerobic
B. adolescentis = experiment: MIC, broth dilution; assay type: cell-based; conditions: Bifidobacterium adolescentis, DSM20083; B. adolescentis (DSM 20083); anaerobic
B. bifidum = experiment: MIC, broth dilution; assay type: cell-based; conditions: Bifidobacterium bifidum, DSM20082; B. bifidum (DSM 20082); anaerobic
Clostridium difficile = experiment: MIC, broth dilution; assay type: cell-based; conditions: Clostridioides difficile, anaerobic
From the text: The Minimum Inhibitory Concentration (MIC) is defined as the lowest concentration expressed in mg/L (equivalent to μg/mL) of an antimicrobial ingredient or agent that is bacteriostatic (prevents the visible growth of bacteria). MICs are used to evaluate the antimicrobial efficacy of various compounds by measuring the effect of decreasing concentrations of antibiotic over a defined period in terms of inhibition of microbial population growth. MIC is generally regarded as the most basic laboratory measurement of the activity of an antimicrobial agent against an organism.
Antimicrobial characteristics of Rifamycin sodium salt was assessed on a panel of selected bacteria involved in pouchitis pathogenesis and a standard broth dilution method was used to determine the MIC of Rifamycin. Briefly, two-fold dilutions of the tested compounds were dispensed in 96 round bottom well plates, each dilution was processed in the liquid culture medium suitable for the tested bacterial species. Bacteria inocula were prepared by a suspension of the microbial strain in sterile water saline and adjusted to a concentration of 0.5McFarland standard corresponding to 1.5×10^8 CFU/ml. A final bacterial concentration of 0.5-1×10^5 CFU/ml was distributed in each well. […] MIC was recorded when there was visible growth in the positive growth control column (bacterial inoculum without test substance). […]

Prevotella intermedia = experiment: MIC, broth dilution; assay type: cell-based; conditions: DSM20706; Prevotella intermedia (DSM 20706); anaerobic
[2] = Rifamycin concentration in colon of DSS mice, HPLC MS/MS; assay type: in vivo; conditions: enema 67 mg/kg, all the tested time-points
Method: as §1
For PK analysis colon samples were cut into in pieces and washed 3 times with PBS to remove surface contaminants.

Streptococcus pyogenes = experiment: MIC, broth dilution; assay type: cell-based; conditions: ATCC700460; Streptococcus pyogenes (ATCC 700460); aerobic

CO[C@H]1/C=C/O[C@@]2(C)Oc3c(C)c(O)c4c(O)c(cc(O)c4c3C2=O)NC(=O)/C(C)=C\C=C\[C@H](C)[C@H](O)[C@@H](C)[C@@H](O)[C@@H](C)[C@H](OC(C)=O)[C@@H]1C [Rifamycin SV]
histological score (DSS induced colitis; compared to 7663): lower improvement
clinical score AUC (DSS induced colitis; compared to batch 7663): lower efficacy
cumulative stool score (DSS induced colitis; vs vehicle): significant improvement
MIC (Veillonella parvula): < 0.03 µg/mL
MIC (Rothia dentocariosa): < 0.03 µg/mL
MIC ([1]; DSM107839, Faecalibacterium prausnitzii (DSM 107839)): 0.06 µg/mL (≈ 0.086 µM)
MIC ([1]; Faecalibacterium prausnitzii, DSM17677, F. prausnitzii (DSM 17677)): < 0.03 µg/mL
MIC ([1]; Faecalibacterium prausnitzii, DSM107838, F. prausnitzii (DSM 107838)): < 0.03 µg/mL
MIC ([1]; Faecalibacterium prausnitzii, DSM107840, F. prausnitzii (DSM 107840)): < 0.03 µg/mL
MIC (K. pneumoniae; DSM16609, K. pneumoniae (DSM 16609)): > 64 µg/mL
MIC (K. pneumoniae; DSM25721, K. pneumoniae (DSM 25721)): 64 µg/mL (≈ 91.7 µM)
MIC (E. faecalis; ATCC29212, E. faecalis (ATCC 29212)): 50 µg/mL (≈ 71.7 µM)
MIC (E. faecalis; DSM2570, E. faecalis (DSM 2570)): 200 µg/mL (≈ 287 µM)
MIC (E. faecalis; DSM2921, E. faecalis (DSM 2921)): 64 µg/mL (≈ 91.7 µM)
MIC (E. faecalis; DSM2981, E. faecalis (DSM 2981)): 200 µg/mL (≈ 287 µM)
MIC (E. faecalis; DSM6134, E. faecalis (DSM 6134)): 50 µg/mL (≈ 71.7 µM)
MIC (E. faecalis; E. faecalis (6172818861)): 12.5 µg/mL (≈ 17.9 µM)
MIC (E. faecalis; E. faecalis (C 46)): 12.5 µg/mL (≈ 17.9 µM)
MIC (E. faecalis; E. faecalis (E 83)): 3.12 µg/mL (≈ 4.47 µM)
MIC (B. adolescentis): 1 µg/mL (≈ 1.43 µM)
MIC (B. bifidum): 1 µg/mL (≈ 1.43 µM)
MIC (Clostridium difficile; ATCC17857, C. difficile (ATCC 17857)): 0.00011 µg/mL (≈ 0.000158 µM)
MIC (Clostridium difficile; ATCC43953, Clostridium difficile (ATCC 43953)): 0.007 µg/mL (≈ 0.01 µM)
MIC (Prevotella intermedia): < 0.3 µg/mL
Rifamycin concentration in the colon homogenate [2]: lower than that of the animals treated with formulation 7663
MIC (Streptococcus pyogenes): 0.5 µg/mL (≈ 0.717 µM)
